The values that follow come from publication PMC6445164, “Primary mono- and bis-sulfonamides obtained via regiospecific sulfochlorination of N-arylpyrazoles: inhibition profile against a panel of human carbonic anhydrases” (Journal of Enzyme Inhibition and Medicinal Chemistry, 2017).

The structures appear in SMILES notation. Read-outs that look alike come from different tables or passages of the source. Where only a bound is given, the exact number is not on record here.

Broadly, the Ki is a measure of affinity in units of concentration, obtained from inhibition or displacement. As usually defined, the melting point is the temperature of the solid-liquid transition.

Data set [1] has as its target hCA IX. Also on record: method as in PMID 26160114. As to conditions: Figure 2; cited from earlier work.
Data set [2] concerns the target hCA XII. The arrangement: method as in PMID 26160114. The settings on record: Figure 2; cited from earlier work.
Data set [3] concerns the target hCA II (Homo sapiens, UniProt P00918). Description: stopped-flow CA catalysed CO2 hydration assay, hCA II.
Description: (§1) An applied photophysics stopped-flow instrument has been used for assaying the CA catalysed CO2 hydration activity[21]. […] The CO2 concentrations ranged from 1.7 to 17 mM for the determination of the kinetic parameters and inhibition constants. […] The uncatalysed rates were determined in the same manner and subtracted from the total observed rates. Stock solutions of inhibitor (0.1 mM) were prepared in distilled-deionized water and dilutions up to 0.005 nM were done thereafter with the assay buffer. Inhibitor and enzyme solutions were preincubated together for 15 min at room temperature prior to assay, in order to allow for the formation of the E–I complex. The inhibition constants were obtained by non-linear least-squares methods using PRISM 3 and the Cheng–Prusoff equation, as reported earlier, and represent the mean from at least three different determinations. All CA isoforms were recombinant ones obtained in-house[22–25].
Data set [4] addresses hCA I (Homo sapiens, UniProt P00915). The experiment in a line: stopped-flow CA catalysed CO2 hydration assay, hCA I.
Description: as §1
The target of data set [5] is hCA VII (Homo sapiens, UniProt P43166). The experiment in a line: stopped-flow CA catalysed CO2 hydration assay, hCA VII.
hCA VII, sequence (P43166 whole entry): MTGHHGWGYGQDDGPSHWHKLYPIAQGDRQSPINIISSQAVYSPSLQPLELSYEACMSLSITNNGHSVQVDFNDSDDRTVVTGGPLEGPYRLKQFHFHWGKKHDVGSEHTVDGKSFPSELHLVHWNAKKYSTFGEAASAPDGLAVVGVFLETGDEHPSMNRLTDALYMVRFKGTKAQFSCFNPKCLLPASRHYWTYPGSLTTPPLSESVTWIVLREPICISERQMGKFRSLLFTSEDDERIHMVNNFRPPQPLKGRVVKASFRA
Description: as §1
Data set [6] deals with hCA IV (Homo sapiens, UniProt P22748). The experiment in a line: stopped-flow CA catalysed CO2 hydration assay, hCA IV.
hCA IV, sequence (P22748 19-312): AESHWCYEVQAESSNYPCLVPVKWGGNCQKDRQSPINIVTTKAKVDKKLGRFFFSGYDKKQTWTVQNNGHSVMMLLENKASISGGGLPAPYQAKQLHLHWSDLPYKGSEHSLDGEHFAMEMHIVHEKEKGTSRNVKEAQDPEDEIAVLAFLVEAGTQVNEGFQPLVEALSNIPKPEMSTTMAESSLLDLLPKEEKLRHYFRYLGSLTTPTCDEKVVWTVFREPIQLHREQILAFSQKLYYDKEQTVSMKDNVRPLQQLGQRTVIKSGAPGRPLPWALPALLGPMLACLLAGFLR
Description: as §1
Setting [7] is: read-out: hCA Ki (μM) hCA II, recombinant enzyme, stopped-flow CO2 hydration, 15 min preincubation, pH 8.3.
Setting [8] is: read-out: hCA Ki (μM) hCA I, recombinant enzyme, stopped-flow CO2 hydration, 15 min preincubation, pH 8.3.
[9] abbreviates: read-out: hCA Ki (μM) hCA VII, recombinant enzyme, stopped-flow CO2 hydration, 15 min preincubation, pH 8.3.
Setting [10] is: read-out: hCA Ki (μM) hCA IV, recombinant enzyme, stopped-flow CO2 hydration, 15 min preincubation, pH 8.3.
The mark [11] stands for this setting: within the panel hCA I, II, IV, VII.

hCA I, sequence (P00915 whole entry): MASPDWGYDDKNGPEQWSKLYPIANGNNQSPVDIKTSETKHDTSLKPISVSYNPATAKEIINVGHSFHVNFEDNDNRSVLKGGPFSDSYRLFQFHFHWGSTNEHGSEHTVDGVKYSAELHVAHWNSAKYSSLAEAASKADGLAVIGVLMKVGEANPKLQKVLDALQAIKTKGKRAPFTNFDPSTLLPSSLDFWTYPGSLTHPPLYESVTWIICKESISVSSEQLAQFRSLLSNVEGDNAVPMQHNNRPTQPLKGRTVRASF

Take `NS(=O)(=O)c1ccc(-c2cnc(C(=O)N3CCCC3)o2)s1` [Compound 4]: the results for the Ki in data set [1] and in data set [2] were 18.7 nM and 6.7 nM, respectively.

For the compound `Cc1nn(-c2cccc(S(N)(=O)=O)c2)c(C)c1S(N)(=O)=O` [Compound 9a, 3,5-Dimethyl-1-(3-sulfamoylphenyl)-^1H-pyrazole-4-sulfonamide], the melting point was in the range of 223 to 225 °C. Besides, the Ki in data set [3] is 0.021 µM. This compound displayed a Ki in data set [4] of 0.5 µM. Also, the Ki in data set [5] is 0.26 µM. The compound also had a Ki in data set [6] of 0.065 µM.

Compound `Cc1nn(-c2ccc(S(N)(=O)=O)cc2)c(C)c1S(N)(=O)=O` [Compound 9b, 3,5-Dimethyl-1-(4-sulfamoylphenyl)-^1H-pyrazole-4-sulfonamide] gave a melting point of 272 to 274 °C. In data set [3], the affinity, expressed as Ki, was 0.005 µM. The compound also registered a Ki in data set [4] of 0.33 µM. In data set [5], this compound showed a Ki of 0.035 µM. In data set [6], this compound came in with a Ki of 0.111 µM.

For the compound `NS(=O)(=O)c1ccc(-n2cc(S(N)(=O)=O)cn2)cc1` [Compound 9c, 1-(4-Sulfamoylphenyl)-^1H-pyrazole-4-sulfonamide], the melting point was 254 to 257 °C. Besides, the Ki in data set [3] stood at 0.002 µM. Also, the affinity in data set [4] corresponds to a Ki of 0.2 µM. In data set [5], this compound returned a Ki of 0.041 µM. Also, the inhibitory constant (Ki) in data set [6] came out at 0.025 µM.

Turning to `Cc1ccc(-n2cc(S(N)(=O)=O)cn2)cc1S(N)(=O)=O` [Compound 9e, 1-(4-Methyl-3-sulfamoylphenyl)-^1H-pyrazole-4-sulfonamide], the melting point lay within 217 to 220 °C. The compound further gave a Ki in data set [3] of 0.004 µM. For the same compound, in data set [4], the affinity, expressed as Ki, was 0.3 µM. In data set [5], this compound returned a Ki of 0.068 µM. The Ki in data set [6] stood at 0.24 µM.

On to `Cc1cc(-n2nc(C)c(S(N)(=O)=O)c2C)ccc1S(N)(=O)=O` [Compound 9f, 3,5-Dimethyl-1-(3-methyl-4-sulfamoylphenyl)-^1H-pyrazole-4-sulfonamide], for which the melting point lay in the range of 143 to 146 °C. Moreover, in data set [3], the affinity corresponds to a Ki of 0.002 µM. Further, the inhibition constant Ki in data set [4] is 0.47 µM. In data set [5], this compound gave a Ki of 0.019 µM. In data set [6], this compound came in with a Ki of 0.022 µM.

`Cc1cc(-n2cc(S(N)(=O)=O)cn2)ccc1S(N)(=O)=O` [Compound 9g, 1-(3-Methyl-4-sulfamoylphenyl)-^1H-pyrazole-4-sulfonamide] had a melting point of 205 to 207 °C. For the same compound, the Ki in data set [3] (setting [7]) came to 0.049 µM. Also, the Ki in data set [4] (setting [8]) is 0.1 µM. Besides, in data set [5] (setting [9]), the Ki was 0.005 µM. The Ki in data set [6] (setting [10]) worked out at 5.8 µM.

In turn, `Cc1ccc(S(N)(=O)=O)cc1-n1nc(C)c(S(N)(=O)=O)c1C` [Compound 9h, 3,5-Dimethyl-1-(2-methyl-5-sulfamoylphenyl)-^1H-pyrazole-4-sulfonamide] showed a melting point of 308 to 310 °C. Further, the Ki in data set [3] was greater than 10 µM. Besides, the Ki in data set [4] amounted to 0.87 µM. For the same compound, the “isoform selectivity for hCA I, in words” value in data set [4] (setting [11]) is listed as “selective inhibitor of hCA I”. The same compound returned a Ki in data set [5] greater than 10 µM. This compound also came in with a Ki in data set [6] greater than 10 µM.

`Cc1ccc(S(N)(=O)=O)cc1-n1cc(S(N)(=O)=O)cn1` [Compound 9i, 1-(2-Methyl-5-sulfamoylphenyl)-^1H-pyrazole-4-sulfonamide] had a melting point of 185 to 188 °C. For the same compound, the inhibition constant (Ki) in data set [3] (setting [7]) is 0.03 µM. In data set [4] (setting [8]), the Ki was 0.55 µM. Further, the Ki in data set [5] (setting [9]) worked out at 0.014 µM. In data set [6] (setting [10]), the Ki is 7.86 µM.

For the compound `COc1ccc(-n2nc(C)c(S(N)(=O)=O)c2C)cc1S(N)(=O)=O` [Compound 9j, 1-(4-Methoxy-3-sulfamoylphenyl)-3,5-dimethyl-^1H-pyrazole-4-sulfonamide], the melting point lay in the range of 254 to 257 °C. In addition, in data set [3], the inhibition constant Ki worked out at 0.96 µM. In data set [4], the affinity, expressed as Ki, was 0.95 µM. This compound also displayed a Ki in data set [5] of 0.33 µM. The compound further returned a Ki in data set [6] greater than 10 µM.

The compound `COc1cc(-n2nc(C)c(S(N)(=O)=O)c2C)ccc1S(N)(=O)=O` [Compound 9k, 1-(3-Methoxy-4-sulfamoylphenyl)-3,5-dimethyl-^1H-pyrazole-4-sulfonamide] showed a melting point of 256 to 258 °C. This compound returned a Ki in data set [3] of 0.61 µM. For the same compound, in data set [4], the Ki worked out at 4.65 µM. The Ki in data set [5] stood at 0.17 µM. In data set [6], this compound displayed a Ki greater than 10 µM.

In the case of `COc1ccc(S(N)(=O)=O)cc1-n1nc(C)c(S(N)(=O)=O)c1C` [Compound 9l, 1-(2-Methoxy-5-sulfamoylphenyl)-3,5-dimethyl-^1H-pyrazole-4-sulfonamide], the melting point lay in the range of 238 to 242 °C. Also, affinity in data set [3] was put at a Ki of 0.3 µM. The compound further had a Ki in data set [4] of 6.8 µM. For the same compound, the Ki in data set [5] is greater than 10 µM. In data set [6], this compound yielded a Ki of 0.95 µM.

`Cc1nn(-c2ccc(Cl)c(S(N)(=O)=O)c2)c(C)c1S(N)(=O)=O` [Compound 9m, 1-(4-Chloro-3-sulfamoylphenyl)-3,5-dimethyl-^1H-pyrazole-4-sulfonamide] displayed a melting point of 241 to 243 °C. In data set [3], this compound had a Ki of 0.04 µM. The same compound yielded an inhibition constant Ki in data set [4] of 0.89 µM. The affinity in data set [5] corresponds to a Ki of 0.65 µM. In addition, the Ki in data set [6] is 0.077 µM.

`NS(=O)(=O)c1cnn(-c2ccc(Cl)c(S(N)(=O)=O)c2)c1` [Compound 9n, 1-(4-Chloro-3-sulfamoylphenyl)-^1H-pyrazole-4-sulfonamide]: the melting point is 232 to 235 °C. The same compound returned a Ki in data set [3] of 0.024 µM. Moreover, the Ki in data set [4] is 0.62 µM. In data set [5], affinity was put at a Ki of 0.099 µM. The Ki in data set [6] came out at 0.074 µM.

As for `Cc1nn(-c2ccc(S(N)(=O)=O)c(Cl)c2)c(C)c1S(N)(=O)=O` [Compound 9o, 1-(3-Chloro-4-sulfamoylphenyl)-3,5-dimethyl-^1H-pyrazole-4-sulfonamide], the melting point is 198 to 201 °C. The same compound gave a Ki in data set [3] of 0.008 µM. The same compound yielded a Ki in data set [4] of 0.16 µM. Affinity in data set [5] was put at a Ki of 0.71 µM. Besides, the affinity in data set [6] corresponds to a Ki of 0.93 µM.

Take `NS(=O)(=O)c1cnn(-c2ccc(S(N)(=O)=O)c(Cl)c2)c1` [Compound 9p, 1-(3-Chloro-4-sulfamoylphenyl)-^1H-pyrazole-4-sulfonamide]: the melting point lay in the range of 195 to 197 °C. The compound also had a Ki in data set [3] of 0.008 µM. Besides, the Ki in data set [4] was found to be 3.08 µM. In data set [5], this compound returned a Ki of 0.48 µM. The compound also showed a Ki in data set [6] of 0.075 µM.

In turn, `Cc1nn(-c2cc(S(N)(=O)=O)ccc2Cl)c(C)c1S(N)(=O)=O` [Compound 9q, 1-(2-Chloro-5-sulfamoylphenyl)-3,5-dimethyl-^1H-pyrazole-4-sulfonamide] yielded a melting point of 230 to 232 °C. This compound showed a Ki in data set [3] of 0.025 µM. In addition, in data set [3] (setting [11]), the “isoform selectivity for hCA II, in words” value is “selective hCA II inhibitor”. In data set [4], this compound yielded an inhibition constant Ki of 2.12 µM. The Ki in data set [5] was greater than 10 µM. The compound further yielded a Ki in data set [6] of 4.38 µM.

`NS(=O)(=O)c1ccc(Cl)c(-n2cc(S(N)(=O)=O)cn2)c1` [Compound 9r, 1-(2-Chloro-5-sulfamoylphenyl)-^1H-pyrazole-4-sulfonamide] yielded a melting point of 235 to 237 °C. Moreover, in data set [3], the Ki is 0.005 µM. Further, in data set [4], the inhibition constant Ki is 0.55 µM. The affinity in data set [5], expressed as Ki, was 0.6 µM. Further, the Ki in data set [6] turned out to be 0.022 µM.
